The record followed here is article PMC9861858, “Stereoselective Synthesis and Antiproliferative Activities of Tetrafunctional Diterpene Steviol Derivatives” (International Journal of Molecular Sciences, 2023).

For test [1], the system named is NIH/3T3 fibroblasts. Kind of test: MTT assay on fibroblasts (selectivity). In kind it is cell-based, murine. To be noted: Mus musculus, 72 h, values <20% considered negligible, read-out: Growth inhibition (%) ± SEM, NIH/3T3; for inhibition at 10 µM: NIH3T3, 10 μM; for inhibition at 30 µM: NIH3T3, 30 μM. Summed up: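 Cells grown in Eagle's minimal essential medium with 10% FBS at 37 °C, 5% CO2 were seeded at 5000/well, left overnight, then exposed to compounds at 10 μM and 30 μM for 72 h. Growth inhibition was read by MTT (4 h), formazan dissolved in DMSO, absorbance at 545 nm.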

The subject of test [2] is human cancer cell lines (HeLa, SiHa, A2780, MCF-7 and MDA-MB-231). Kind of test: MTT antiproliferative assay, whole cancer cell panel. In kind it is cell-based. To be noted: 10 and 30 μM. On the procedure:
The in vitro antiproliferative activities of the synthesised aminotriols 5–18 against a panel of different human cancer cell lines of gynecological origin, including cervical (SiHA and HeLa), breast (MCF7 and MDA-MB-231), ovary (A2780) cancers and NIH/3T3 healthy fibroblasts, were assayed by the MTT method. Cisplatin, a clinically applied anticancer agent was used as a reference compound, and the results are summarised in Figure 3 and Table S1 in the Supplementary Materials.
The growth-inhibitory effects of the presented terpenes were determined by a standard MTT [3-(4,5-dimethylthiazol2-yl)-2,5-diphenyltetrazolium bromide] assay against […] human cancer cell lines (cervical cancer HeLa and SiHa cell lines, breast cancer MCF-7 and MDA-MB-231 and ovarian cancer A2780). Murine embryonal fibroblast cells (NIH/3T3) were used to determine selectivity. All cell lines were purchased from the European Collection of Cell Cultures (Salisbury, UK). The cells were cultivated in Eagle’s minimal essential medium supplemented with 10% fetal bovine serum, 1% non-essential amino acids, and 1% Antibiotic-Antimycotic complex (penicillin, streptomycin, amphotericin B) at 37 °C in a humidified atmosphere containing 5% CO2. All media and supplements were purchased from Lonza Group Ltd. (Basel, Switzerland). Cancer cells were seeded into 96-well plates (5000 cells/well) after an overnight incubation, and the test compounds were added at two different concentrations (10 μM and 30 μM) and incubated for another 72 h under cell-culturing conditions. Finally, 20 μL of a 5 mg/mL MTT solution was added to each well, and the contents were incubated for a further 4 h. The medium was removed, and the precipitated formazan crystals were dissolved in DMSO by shaking at 37 °C for 60 min. The absorbance was measured at 545 nm by using a microplate reader (SPECTROStar Nano, BMG Labtech, Offenburg, Germany). Clinically utilised anticancer agent cisplatin (Ebewe GmbH, Unterach, Austria) was included as a reference molecule. Calculations were performed using the GraphPad Prism 9 software (GraphPad Software Inc., San Diego, CA, USA).
In general terms: Tetrazolium dyes change colour on reduction, which living cells bring about.

Structures are written as SMILES. “Also recorded” adds a separate entry of the source.

As for `COC(=O)[C@]1(C)CCC[C@@]2(C)C3CC[C@]4(O)C[C@@]3(CCC21)[C@@H](O)[C@]4(O)CNCc1ccccc1` (stereo partly drawn) [Compound 5, (4R,6aR,7R,8R,9S,11bS)-Methyl 8-((Benzylamino)methyl)-7,8,9-trihydroxy-4,11b-dimethyltetradecahydro-6a,9-methanocyclohepta[a]naphthalene-4-carboxylate], in test [1], the inhibition at 10 µM is less than 20% and the inhibition at 30 µM was determined as 101.1 ± 0.43%. The “Antiproliferative activity on the cancer cell panel, in words” value in test [2] is “significant activity in higher concentrations only”.
The like results for `COC(=O)[C@]1(C)CCC[C@@]2(C)C3CC[C@]4(O)C[C@@]3(CCC21)[C@@H](O)[C@]4(O)CN(C)Cc1ccccc1` (stereo partly drawn) [Compound 6, (4R,6aR,7R,8R,9S,11bS)-Methyl 8-((Benzyl(methyl)amino)methyl)-7,8,9-trihydroxy-4,11b-dimethyltetradecahydro-6a,9-methanocyclohepta[a]naphthalene-4-carboxylate] were, in that order, less than 20%, 89.3 ± 2.62% and “lower bioactivity; also recorded: significant activity in higher concentrations only”.
Consider `COC(=O)[C@]1(C)CCC[C@@]2(C)C3CC[C@]4(O)C[C@@]3(CCC21)[C@@H](O)[C@]4(O)CNCc1ccc(F)cc1` (stereo partly drawn) [Compound 9, (4R,6aR,7R,8R,9S,11bS)-Methyl 8-(((4-Fluorobenzyl)amino)methyl)-7,8,9-trihydroxy-4,11b-dimethyltetradecahydro-6a,9-methanocyclohepta[a]naphthalene-4-carboxylate], for which, in test [1], the inhibition at 10 µM came to 25.9 ± 0.94% and the inhibition at 30 µM is 92.4 ± 1.01%.
With `CC[C@@H](NC[C@@]1(O)[C@H](O)[C@@]23CCC4[C@@](C)(CCC[C@@]4(C)C(=O)OC)C2CC[C@]1(O)C3)c1ccccc1` (stereo partly drawn) [Compound 15, (4R,6aR,7R,8R,9S,11bS)-Methyl 7,8,9-Trihydroxy-4,11b-dimethyl-8-((((R)-1-phenylpropyl)amino)methyl)tetradecahydro-6a,9-methanocyclohepta[a]naphthalene-4-carboxylate], in test [1], the inhibition at 10 µM came out at 21 ± 0.96% and the inhibition at 30 µM is 94.23 ± 0.31%.
The like results for `CC[C@H](NC[C@@]1(O)[C@H](O)[C@@]23CCC4[C@@](C)(CCC[C@@]4(C)C(=O)OC)C2CC[C@]1(O)C3)c1ccccc1` (stereo partly drawn) [Compound 16, (4R,6aR,7R,8R,9S,11bS)-Methyl 7,8,9-Trihydroxy-4,11b-dimethyl-8-((((S)-1-phenylpropyl)amino)methyl)tetradecahydro-6a,9-methanocyclohepta[a]naphthalene-4-carboxylate] were, in that order, less than 20% and 95.12 ± 0.41%.
